# ChEMBL document CHEMBL3638769, “Inhibitors of STAT3” (2015)
# Target: Signal transducer and activator of transcription 3 (Homo sapiens, UniProt P40763)
# Experiment: EMSA Based Assay: A screening process evaluated in vitro disruption of STAT3(dimer)-DNA formation through a previously published EMSA based assays, giving a valuable insight into the inhibitor's mode of action against the STAT3 homo-dimer.
# Sequence of Signal transducer and activator of transcription 3 (P40763 whole entry): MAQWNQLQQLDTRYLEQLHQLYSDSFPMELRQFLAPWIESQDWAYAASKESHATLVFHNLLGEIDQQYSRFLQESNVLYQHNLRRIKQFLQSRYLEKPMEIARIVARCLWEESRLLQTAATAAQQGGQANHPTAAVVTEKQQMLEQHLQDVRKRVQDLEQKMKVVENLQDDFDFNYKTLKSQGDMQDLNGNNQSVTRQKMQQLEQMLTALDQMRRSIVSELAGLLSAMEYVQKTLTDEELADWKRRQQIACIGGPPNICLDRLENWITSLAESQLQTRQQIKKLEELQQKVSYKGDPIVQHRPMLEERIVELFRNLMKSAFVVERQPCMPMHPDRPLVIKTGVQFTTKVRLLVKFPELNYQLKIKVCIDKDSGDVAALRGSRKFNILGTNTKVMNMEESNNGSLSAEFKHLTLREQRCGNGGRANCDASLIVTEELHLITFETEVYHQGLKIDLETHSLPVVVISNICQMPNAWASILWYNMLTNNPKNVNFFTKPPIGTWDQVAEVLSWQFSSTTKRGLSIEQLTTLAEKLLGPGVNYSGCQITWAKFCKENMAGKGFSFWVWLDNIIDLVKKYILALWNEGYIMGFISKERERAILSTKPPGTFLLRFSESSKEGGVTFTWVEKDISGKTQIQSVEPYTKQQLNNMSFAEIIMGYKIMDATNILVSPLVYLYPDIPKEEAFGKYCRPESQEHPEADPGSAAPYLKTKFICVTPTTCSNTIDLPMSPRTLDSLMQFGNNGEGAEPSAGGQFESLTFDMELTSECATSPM
row,SMILES,IC50 [µM]
1,O=C(Nc1ccc(C2CCCCC2)cc1)c1nc(-c2ccccc2)sc1Cc1ccc(OP(=O)(O)O)cc1,775
2,O=C(Nc1ccc(C2CCCCC2)cc1)c1nc(-c2cccc3ccccc23)oc1Cc1ccc(OP(=O)(O)O)cc1,255
3,CCCCCCNC(=O)c1nc(-c2ccccc2)sc1Cc1ccc(OP(=O)(O)O)cc1,150
4,CCCCCCNC(=O)c1nc(-c2ccccc2)oc1Cc1ccc(OP(=O)(O)O)cc1,> 1000
5,O=C(Nc1ccc(C2CCCCC2)cc1)c1nc(-c2ccccc2)oc1Cc1ccc(OP(=O)(O)O)cc1,33
6,CCCCCCNC(=O)c1nc(-c2cccc3ccccc23)oc1Cc1ccc(OP(=O)(O)O)cc1,58
7,CCCCCCNC(=O)c1nc(-c2cccc3ccccc23)sc1Cc1ccc(OP(=O)(O)O)cc1,25
8,O=C(Nc1ccc(C2CCCCC2)cc1)c1nc(-c2ccccc2)oc1Cc1ccc(O)cc1,> 1000
9,O=C(Nc1ccc(C2CCCCC2)cc1)c1nc(-c2cccc3ccccc23)sc1Cc1ccc(OP(=O)(O)O)cc1,350
10,O=C(O)c1nc(-c2ccccc2)oc1Cc1ccc(OP(=O)(O)O)cc1,> 1000
